Laboratory results: publication PMC8955938, “c-Myc Protein Level Affected by Unsymmetrical Bisacridines Influences Apoptosis and Senescence Induced in HCT116 Colorectal and H460 Lung Cancer Cells” (International Journal of Molecular Sciences, 2022)
“And” between values parts separate entries of the source, which are not always exact repeats. Identical values can stand only once.

Tests used:
Format in all cases: cell-based, human
HCT116 cells [1] = assay: MTT cell growth inhibition assay, HCT116; conditions: HCT116, 72 h
Experimental: (§1) To assess cell viability, the MTT assay was used. HCT116, H460, CCD 841 CoN and MRC-5 cells (20,000/well and 50,000/well for cancer and normal cells, respectively) were seeded in 24-well plates, and the following UAs were added at concentrations up to 10 μM: C-2028, C-2041, C-2045 and C-2053. Stock solutions (10 mM) were prepared in sterile water, as well as dilutions, also in water. After 72 h, 3-(4, 5-dimethylthiazol-2-yl)-2,5-diphenyltetrazolium bromide (MTT; 800 μg/well) was added for 3 h, then the formazan crystals were dissolved in DMSO, and absorbance was read at 540 nm. Each point was conducted at least 4 times, and data are expressed relative to controls. The concentration of the drug required to inhibit cells growth by 50 (IC50), 80 (IC80) and 90% (IC90) compared to untreated control cells was determined from the curves plotting survival as a function of dose.

HCT116 cells [2] = assay: Cell cycle analysis (PI, flow cytometry), HCT116; conditions: HCT116, IC90 doses; for cells with more than 4N DNA (polyploid): during the time of incubation (time not specified), control 10%; for cells in G2/M (4N DNA): during the treatment after accumulation at 24 h (time not specified)
Experimental: (§2) After drug treatment, trypsinized and floating cells (2 × 10^6) were pooled, washed twice with ice-cold PBS and fixed in 70% (v/v) ethanol overnight at −20 °C. Cells were stained with propidium iodide (PI) (BD Biosciences, San Jose, CA, USA) and monitored by FACS Accuri C6 (BD Biosciences, San Jose, CA, USA).

[3] = test system: KRAS gene expression in H460 cells; assay: RT-PCR KRAS expression in H460; conditions: H460, IC90 doses, with time of incubation up to 120 h
Experimental: HCT116, H460, CCD 841 CoN and MRC-5 cells after treatment with UAs were collected, washed twice with ice-cold PBS and resuspended in […] of PBS. mRNA was isolated using High Pure RNA Isolation Kit according to the manufacturer’s instructions (Roche, Basel, Switzerland). Briefly, cells were lysed in lysis-binding buffer and transferred to a filter tube. Contaminating DNA was removed by 15 min incubation of the filter tube with DNase I solution. The filter tube was washed once with buffer I and twice with buffer II, and after centrifugation, total RNA was eluted using the elution buffer. RNA concentration was determined by NanoDrop One (Thermo Scientific); 1 µg of RNA was reverse transcribed using Transcriptor First Strand cDNA Synthesis Kit according to the manufacturer’s instructions (Roche) in 20 µL of reaction containing 1 µg of RNA, […] anchored-oligo(dT)18Primer, 8 mM MgCl2, 20 U of Protector RNase Inhibitor, deoxynucleotide mix (1 mM each) and 22 U of Transcriptor Reverse Transcriptase. The reverse transcription reaction was carried out for 30 min at 55 °C and stopped by heating to 85 °C for 5 min and placing on ice. The cDNA solution was stored at −20 °C until use. Real-time polymerase chain reaction (PCR) was performed on 2 µL of cDNA using 0.2 µM forward and reverse primers on LightCycler® 480 using LightCycler® 480 SYBR Green I Master according to manufacturer’s instructions (Roche). Primers were designed using BLAST website. Their efficiency was checked, and they were ordered from Genomed (Warsaw, Poland). The sequences of primers were as follows: MYC set 1 forward primer, […]; MYC set 1 reverse primer, […]; MYC set 2 forward primer, […]; MYC set 2 reverse primer, […]; KRAS forward primer, […]; KRAS reverse primer, […]; reference gene, GAPDH forward primer ACCCACTCCTCCACCTTTG; and GAPDH reverse primer, CTCTTGTGCTCTTGCTGGG. Cycling conditions were as follows: 1 cycle for 7 min at 95 °C (preincubation), 45 cycles of amplification: 10 s at 95 °C (denaturation), 20 s at 62 °C (annealing), 30 s at 72 °C (extension), 1 cycle for obtaining melting curve and 1 cycle for 10 s at 40 °C (cooling). The results were standardized to the reference gene GADPH. The relative expression level of MYC and KRAS was quantified using comparative method […]. The results were obtained from three independent experiments, each of which was analyzed at least twice.

MRC-5 cells = assay: MTT cell growth inhibition assay, MRC-5; conditions: Homo sapiens; for IC50: MRC5, 72 h, MRC-5 normal cells; for IC90: MRC5, MRC-5 normal cells, 72 h
Experimental: as §1

H460 cells [4] = assay: Cell cycle analysis (PI, flow cytometry), H460; conditions: H460, IC90 doses
Experimental: as §2

H460 cells [5] = assay: MTT cell growth inhibition assay, H460
Experimental: as §1

[6] = test system: cleaved PARP in HCT116 cells; assay: PARP cleavage flow cytometry, HCT116; conditions: HCT116, IC90 doses, up to 120 h
Experimental: PARP cleavage was determined using Alexa Fluor 647-conjugated anti-cleaved PARP antibody (BD Biosciences, San Diego, CA, USA) according to the manufacturer’s instructions. Briefly, HCT116 and H460 cells (1 × 10^6) were trypsinized, pelleted, washed twice with ice-cold PBS and fixed in Fixation Buffer for 20 min on ice. After fixation, cells were rinsed twice with Perm Wash Buffer, stained with Alexa Fluor 647-conjugated anti-cleaved PARP antibody for 30 min, rinsed with Perm Wash Buffer and analyzed by flow cytometry with FACS Accuri C6 (BD, San Jose, CA, USA).

Cc1ccc([N+](=O)[O-])c2c(NCCCN(C)CCCNc3ccc4ncn5c6ccccc6c(=O)c3c45)c3ccccc3nc12 [Compound C-2053]
IC50 (HCT116 cells [1]; Homo sapiens, HCT-116, 72 h): 48 ± 14 nM
IC90 (HCT116 cells [1]; Homo sapiens, HCT-116, 72 h): 195 ± 75 nM
Poli (polyploid cells) (HCT116 cells [2]; 24 h): 8.89 ± 1.38%
cells in G1 (HCT116 cells [2]; 24 h): 22.34 ± 2.79%
cells in G2/M (HCT116 cells [2]; 24 h): 44.81 ± 7.10%
cells in S (HCT116 cells [2]; 24 h): 19.19 ± 1.77%
cells in Sub-G1 (HCT116 cells [2]; 24 h): 3.06 ± 1.09%
Poli (polyploid cells) (HCT116 cells [2]; 72 h): 11.02 ± 2.20%
cells in G1 (HCT116 cells [2]; 72 h): 35.18 ± 2.63%
cells in G2/M (HCT116 cells [2]; 72 h): 36.32 ± 3.14%
cells in S (HCT116 cells [2]; 72 h): 5.43 ± 1.59%
cells in Sub-G1 (HCT116 cells [2]; 72 h): 10.45 ± 2.56%
Poli (polyploid cells) (HCT116 cells [2]; 120 h): 14.62 ± 4.62%
cells in G1 (HCT116 cells [2]; 120 h): 30.06 ± 4.35%
cells in G2/M (HCT116 cells [2]; 120 h): 27.20 ± 4.16%
cells in S (HCT116 cells [2]; 120 h): 4.10 ± 0.56%
cells in Sub-G1 (HCT116 cells [2]; 120 h): 23.64 ± 4.86% and 23.6%
cells with more than 4N DNA (polyploid) (HCT116 cells [2]): around 15%
cells in G2/M (4N DNA) (HCT116 cells [2]): ~23%
relative amount of KRAS mRNA [3]: ~1.7
IC50 (MRC-5 cells): 120 ± 26 nM
IC90 (MRC-5 cells): 3800 ± 1340 nM
Poli (polyploid cells) (H460 cells [4]; 24 h): 2.76 ± 0.30%
cells in G1 (H460 cells [4]; 24 h): 30.44 ± 2.27%
cells in G2/M (H460 cells [4]; 24 h): 27.37 ± 2.20%
cells in S (H460 cells [4]; 24 h): 33.77 ± 3.66%
cells in Sub-G1 (H460 cells [4]; 24 h): 6.28 ± 1.52%
Poli (polyploid cells) (H460 cells [4]; 72 h): 1.73 ± 0.52%
cells in G1 (H460 cells [4]; 72 h): 36.08 ± 5.84%
cells in G2/M (H460 cells [4]; 72 h): 24.96 ± 3.05%
cells in S (H460 cells [4]; 72 h): 14.09 ± 2.46%
cells in Sub-G1 (H460 cells [4]; 72 h): 22.37 ± 2.06%
Poli (polyploid cells) (H460 cells [4]; 120 h): 2.39 ± 1.17%
cells in G2/M (H460 cells [4]; 120 h): 19.77 ± 6.06%
cells in S (H460 cells [4]; 120 h): 10.78 ± 1.76%
cells in Sub-G1 (H460 cells [4]; 120 h): 41.51 ± 5.77% and 41.5%
IC50 (H460 cells [5]; Homo sapiens, NCI-H460, 72 h): 25 ± 6 nM
IC90 (H460 cells [5]; Homo sapiens, NCI-H460, 72 h): 184 ± 22 nM
cells with cleaved PARP [6]: least degraded

CN(CCCNc1c2ccccc2nc2cccc([N+](=O)[O-])c12)CCCNc1ccc2ncn3c4ccccc4c(=O)c1c23 [Compound C-2028]
IC50 (HCT116 cells [1]): 10 ± 1 nM
IC90 (HCT116 cells [1]): 44 ± 5 nM
IC50 (HCT116 cells [1]; Homo sapiens, HCT-116, 72 h): ≤ 16 nM
IC90 (HCT116 cells [1]; Homo sapiens, HCT-116, 72 h): ≤ 50 nM
Poli (polyploid cells) (HCT116 cells [2]; 24 h): 5.73 ± 0.93%
cells in G1 (HCT116 cells [2]; 24 h): 24.89 ± 3.90%
cells in G2/M (HCT116 cells [2]; 24 h): 45.89 ± 3.13%
cells in S (HCT116 cells [2]; 24 h): 19.33 ± 1.58%
cells in Sub-G1 (HCT116 cells [2]; 24 h): 3.37 ± 0.69%
Poli (polyploid cells) (HCT116 cells [2]; 72 h): 5.11 ± 1.54%
cells in G1 (HCT116 cells [2]; 72 h): 28.63 ± 5.96%
cells in G2/M (HCT116 cells [2]; 72 h): 21.02 ± 4.86%
cells in S (HCT116 cells [2]; 72 h): 7.67 ± 2.54%
cells in Sub-G1 (HCT116 cells [2]; 72 h): 36.97 ± 8.93%
Poli (polyploid cells) (HCT116 cells [2]; 120 h): 5.73 ±2.33%
cells in G1 (HCT116 cells [2]; 120 h): 25.39 ± 3.25%
cells in G2/M (HCT116 cells [2]; 120 h): 26.26 ± 4.90%
cells in S (HCT116 cells [2]; 120 h): 4.95 ± 1.90%
cells in Sub-G1 (HCT116 cells [2]; 120 h): 37.46 ± 9.35% and 37.5% and 30%
cells with more than 4N DNA (polyploid) (HCT116 cells [2]): 5%
cells in G2/M (4N DNA) (HCT116 cells [2]): ~23%
relative amount of KRAS mRNA [3]: remained almost at the same level
IC50 (MRC-5 cells): ~20 nM
IC90 (MRC-5 cells): 2690 ± 640 nM
Poli (polyploid cells) (H460 cells [4]; 24 h): 1.70 ± 0.42%
cells in G1 (H460 cells [4]; 24 h): 32.92 ± 3.77%
cells in G2/M (H460 cells [4]; 24 h): 21.64 ± 4.23%
cells in S (H460 cells [4]; 24 h): 32.74 ± 2.09%
cells in Sub-G1 (H460 cells [4]; 24 h): 11.09 ± 3.80%
Poli (polyploid cells) (H460 cells [4]; 72 h): 2.11 ± 0.55%
cells in G1 (H460 cells [4]; 72 h): 37.15 ± 4.13%
cells in G2/M (H460 cells [4]; 72 h): 19.21 ± 6.60%
cells in S (H460 cells [4]; 72 h): 15.80 ± 2.33%
cells in Sub-G1 (H460 cells [4]; 72 h): 25.45 ± 7.20%
Poli (polyploid cells) (H460 cells [4]; 120 h): 4.03 ± 0.95%
cells in G1 (H460 cells [4]; 120 h): 29.87 ± 2.31%
cells in G2/M (H460 cells [4]; 120 h): 28.98 ± 3.64%
cells in S (H460 cells [4]; 120 h): 9.93 ± 2.46%
cells in Sub-G1 (H460 cells [4]; 120 h): 26.84 ± 1.92% and 26.8%
IC50 (H460 cells [5]; H460, 72 h): 16 ± 2 nM
IC90 (H460 cells [5]; H460, 72 h): 46 ± 4 nM
IC50 (H460 cells [5]; Homo sapiens, NCI-H460, 72 h): ≤ 16 nM
IC90 (H460 cells [5]; Homo sapiens, NCI-H460, 72 h): ≤ 50 nM
cells with cleaved PARP [6]: approximately 10%
